Source: ChEMBL document CHEMBL1201862, “PubChem BioAssay data set” (2004)
Calls of active or inactive are those of the source.

What was measured:
[1] = Luminescence Cell-Based Dose Confirmation HTS to Identify Activators of 5'UTR Stem-Loop Driven Alpha-Synuclein mRNA Translation in H4 Neuroglioblastoma Cells. [Related pubchem assays: 1829 (Project Summary), 1814 (Primary HTS)]; assay type: functional
[2] = Luminescence Cell-Based Dose Response HTS to Identify Activators of Luciferase Translation or Activity in H4 […] Cells. [Related pubchem assays: 1829 (Project Summary), 1814 (Primary HTS)]; assay type: functional
H4 = assay: Luminescence Cell-Based Dose Response HTS to Identify Activators of 5'UTR Stem-Loop Driven Prion Protein mRNA Translation in H4 Neuroglioblastoma Cells. [Related pubchem assays: 1829 (Project Summary), 1814 (Primary HTS)]; assay type: functional; details: Homo sapiens
[3] = target: 26S proteasome non-ATPase regulatory subunit 14 (Homo sapiens, UniProt O00487); assay: inhibition of proteasome subunit RPN11 – biochemical, fluorescence polarization, uHTS hits, confirmation (AID 602368); assay type: functional
26S proteasome non-ATPase regulatory subunit 14, sequence (O00487 whole entry): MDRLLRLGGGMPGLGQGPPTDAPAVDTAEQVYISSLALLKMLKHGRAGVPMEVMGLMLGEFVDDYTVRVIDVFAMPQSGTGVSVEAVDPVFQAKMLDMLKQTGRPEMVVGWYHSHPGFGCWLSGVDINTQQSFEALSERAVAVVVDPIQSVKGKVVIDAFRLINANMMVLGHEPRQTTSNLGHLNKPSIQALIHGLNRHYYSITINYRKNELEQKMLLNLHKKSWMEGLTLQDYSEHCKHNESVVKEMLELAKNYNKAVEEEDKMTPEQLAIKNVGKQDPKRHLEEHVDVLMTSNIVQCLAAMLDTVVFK

[4] = target: 72 kDa type IV collagenase (Homo sapiens, UniProt P08253); assay: Dose Response validation of uHTS RPN11 inhibitor hits using a MMP-2 Fluorescence assay.; assay type: functional
72 kDa type IV collagenase, sequence (P08253 whole entry): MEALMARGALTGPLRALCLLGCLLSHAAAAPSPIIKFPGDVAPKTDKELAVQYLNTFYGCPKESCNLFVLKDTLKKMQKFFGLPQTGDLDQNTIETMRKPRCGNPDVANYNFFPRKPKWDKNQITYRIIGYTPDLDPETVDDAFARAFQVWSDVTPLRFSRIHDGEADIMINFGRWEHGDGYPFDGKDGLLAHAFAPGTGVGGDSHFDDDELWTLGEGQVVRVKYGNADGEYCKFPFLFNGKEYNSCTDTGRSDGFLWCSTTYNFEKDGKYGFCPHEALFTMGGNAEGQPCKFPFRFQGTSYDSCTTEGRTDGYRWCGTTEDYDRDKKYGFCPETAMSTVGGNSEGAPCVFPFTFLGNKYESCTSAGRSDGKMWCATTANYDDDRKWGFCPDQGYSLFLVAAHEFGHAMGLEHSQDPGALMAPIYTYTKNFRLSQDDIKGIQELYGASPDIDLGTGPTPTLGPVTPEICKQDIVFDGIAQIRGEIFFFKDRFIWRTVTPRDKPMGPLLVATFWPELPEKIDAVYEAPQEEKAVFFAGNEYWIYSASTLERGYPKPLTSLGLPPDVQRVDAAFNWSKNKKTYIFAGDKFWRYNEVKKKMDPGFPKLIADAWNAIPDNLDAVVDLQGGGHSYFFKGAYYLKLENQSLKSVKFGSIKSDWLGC

Prothrombin = Prothrombin (Bos taurus, UniProt P00735); assay: thrombin inhibition, dose response, biochemical, fluorescence polarization, uHTS hits (AID 602369); assay type: functional
[5] = target: T1, Endoribonuclease toxin MazF (Escherichia coli K-12, UniProt P0AE70); assay: MazF toxin RNase activators, dose response, biochemical, fluorescence, single-stranded RNA substrate, uHTS hits (AID 588481); assay type: functional
T1 sequence (P0AE70 whole entry): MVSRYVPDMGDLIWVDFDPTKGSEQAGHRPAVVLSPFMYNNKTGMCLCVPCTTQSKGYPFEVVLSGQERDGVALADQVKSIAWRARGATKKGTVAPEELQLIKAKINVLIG

[6] = target: T1, Endoribonuclease toxin MazF; assay: fluorescent RNA oligo signal without MazF, dose response, counter-screen for MazEF activator project, biochemical, fluorescence, single-stranded RNase substrate (AID 588502); assay type: functional
[7] = NIH-3T3 fibroblast cytotoxicity, dose response, cytotoxicity control, cell-based, fluorescence, Alamar Blue, secondary assay (AID 2327); assay type: functional;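 also: NIH-3T3 mouse fibroblasts cultured with fluconazole at 8 µg/mL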
[8] = C. albicans growth with fluconazole, confirmation, fluorescence, retest (AID 2467); assay type: functional, cell-based
[9] = THP-1 cell cytotoxicity, dose response, cytotoxicity control for non-replicating M. tuberculosis project (AID 489025); assay type: functional
[10] = Vero E6 cell cytotoxicity, dose response, cytotoxicity control for non-replicating M. tuberculosis project, secondary assay (AID 492998); assay type: functional, VeroE6; details: Vero C1008
Aminopeptidase N = target: T2, Aminopeptidase N (Plasmodium falciparum FcB1/Columbia, UniProt O96935); assay: P. falciparum M1AAP inhibitors, biochemical, fluorogenic H-Leu-NHMec substrate, 1536-well (AID 1445); parameters: species or system Plasmodium falciparum 3D7, 3D7
T2 sequence (O96935 whole entry): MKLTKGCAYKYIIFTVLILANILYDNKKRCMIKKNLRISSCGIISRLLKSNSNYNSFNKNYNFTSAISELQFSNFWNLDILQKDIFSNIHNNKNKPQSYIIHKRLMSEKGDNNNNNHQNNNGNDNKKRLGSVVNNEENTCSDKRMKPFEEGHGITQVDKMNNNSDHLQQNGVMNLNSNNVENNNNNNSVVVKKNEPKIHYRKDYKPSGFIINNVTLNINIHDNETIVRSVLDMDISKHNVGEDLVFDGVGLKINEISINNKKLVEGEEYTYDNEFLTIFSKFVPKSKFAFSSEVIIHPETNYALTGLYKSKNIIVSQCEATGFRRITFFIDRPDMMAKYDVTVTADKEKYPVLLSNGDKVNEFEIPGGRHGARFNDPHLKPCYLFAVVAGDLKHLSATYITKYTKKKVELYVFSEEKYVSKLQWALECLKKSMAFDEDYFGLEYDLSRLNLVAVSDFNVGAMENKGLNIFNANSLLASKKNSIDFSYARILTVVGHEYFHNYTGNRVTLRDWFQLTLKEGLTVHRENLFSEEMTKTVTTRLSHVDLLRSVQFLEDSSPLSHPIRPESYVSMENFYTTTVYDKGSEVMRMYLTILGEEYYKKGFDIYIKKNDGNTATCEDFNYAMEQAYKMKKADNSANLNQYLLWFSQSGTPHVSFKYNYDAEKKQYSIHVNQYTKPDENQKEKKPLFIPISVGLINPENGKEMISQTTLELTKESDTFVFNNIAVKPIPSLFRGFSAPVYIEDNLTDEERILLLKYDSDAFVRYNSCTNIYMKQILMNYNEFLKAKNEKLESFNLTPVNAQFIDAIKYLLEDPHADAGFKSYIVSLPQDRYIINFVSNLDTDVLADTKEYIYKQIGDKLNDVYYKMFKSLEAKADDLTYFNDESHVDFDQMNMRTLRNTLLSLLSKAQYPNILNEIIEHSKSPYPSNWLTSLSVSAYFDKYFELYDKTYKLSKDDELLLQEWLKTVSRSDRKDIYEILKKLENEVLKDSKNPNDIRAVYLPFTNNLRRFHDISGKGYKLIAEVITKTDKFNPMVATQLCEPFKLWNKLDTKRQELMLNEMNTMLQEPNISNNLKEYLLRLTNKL

[11] = inhibitors of intracellular T. cruzi replication, confirmation, NIH3T3 host cells, beta-gal luminescence (AID 2044); assay type: functional, cell-based;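 also: intracellular parasites grown in NIH/3T3 mouse fibroblasts as host cells; luminescent beta-galactosidase reporter signal from transgenic T. cruzi replicating inside host cells; inhibitors lower the luminescence signal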
[12] = cytotoxicity toward NIH3T3 fibroblasts, dose response, counter-screen, cell-based, ATP luminescence, mouse fibroblasts (AID 2010); assay type: functional;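 also: cells exposed to compound for about 90 hours before reading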
[13] = target: T3, Apoptotic protease-activating factor 1 (Homo sapiens, UniProt O14727); assay type: functional
T3 sequence (O14727 whole entry): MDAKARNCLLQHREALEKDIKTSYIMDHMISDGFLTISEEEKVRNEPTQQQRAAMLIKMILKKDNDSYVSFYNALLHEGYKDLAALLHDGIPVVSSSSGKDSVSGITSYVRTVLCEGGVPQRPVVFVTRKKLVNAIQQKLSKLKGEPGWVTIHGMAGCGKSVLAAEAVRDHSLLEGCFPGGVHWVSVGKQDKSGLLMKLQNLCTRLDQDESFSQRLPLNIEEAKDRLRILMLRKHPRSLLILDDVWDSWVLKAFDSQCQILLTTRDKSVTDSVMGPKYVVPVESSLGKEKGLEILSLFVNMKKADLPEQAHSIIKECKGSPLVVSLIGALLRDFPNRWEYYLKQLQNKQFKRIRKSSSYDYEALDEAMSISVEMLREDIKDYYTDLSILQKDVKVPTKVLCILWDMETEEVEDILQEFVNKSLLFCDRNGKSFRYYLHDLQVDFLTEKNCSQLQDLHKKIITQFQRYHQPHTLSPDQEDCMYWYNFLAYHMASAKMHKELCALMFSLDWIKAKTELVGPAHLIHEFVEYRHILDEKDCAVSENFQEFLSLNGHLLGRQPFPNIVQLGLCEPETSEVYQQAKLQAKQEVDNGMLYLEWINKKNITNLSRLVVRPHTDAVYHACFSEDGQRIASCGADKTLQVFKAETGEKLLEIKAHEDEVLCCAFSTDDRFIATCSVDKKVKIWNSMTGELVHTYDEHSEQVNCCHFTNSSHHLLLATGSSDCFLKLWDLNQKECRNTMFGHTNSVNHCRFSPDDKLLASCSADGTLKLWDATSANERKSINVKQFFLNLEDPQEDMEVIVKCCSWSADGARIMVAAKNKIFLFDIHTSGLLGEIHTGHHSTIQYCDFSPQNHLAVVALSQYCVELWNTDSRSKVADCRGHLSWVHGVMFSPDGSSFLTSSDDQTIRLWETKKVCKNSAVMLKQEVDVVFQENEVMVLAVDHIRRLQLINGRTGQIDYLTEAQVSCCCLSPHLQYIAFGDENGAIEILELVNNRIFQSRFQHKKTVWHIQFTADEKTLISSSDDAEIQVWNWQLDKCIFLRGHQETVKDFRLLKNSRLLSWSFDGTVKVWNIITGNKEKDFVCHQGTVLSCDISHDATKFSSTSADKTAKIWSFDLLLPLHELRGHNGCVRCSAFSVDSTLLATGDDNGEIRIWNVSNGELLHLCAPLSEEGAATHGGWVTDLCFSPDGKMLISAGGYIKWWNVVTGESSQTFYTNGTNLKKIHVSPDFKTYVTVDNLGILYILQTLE

[14] = target: Dual specificity tyrosine-phosphorylation-regulated kinase 1A (Rattus norvegicus, UniProt Q63470); assay type: biochemical, Homo sapiens
cells = assay type: functional
Cytochrome P450 3A4 = Cytochrome P450 3A4 (Homo sapiens, UniProt P08684); details: Potency;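 also: confirmatory qHTS run detecting inhibitors and substrates of CYP3A4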
Cytochrome P450 3A4, sequence (P08684 whole entry): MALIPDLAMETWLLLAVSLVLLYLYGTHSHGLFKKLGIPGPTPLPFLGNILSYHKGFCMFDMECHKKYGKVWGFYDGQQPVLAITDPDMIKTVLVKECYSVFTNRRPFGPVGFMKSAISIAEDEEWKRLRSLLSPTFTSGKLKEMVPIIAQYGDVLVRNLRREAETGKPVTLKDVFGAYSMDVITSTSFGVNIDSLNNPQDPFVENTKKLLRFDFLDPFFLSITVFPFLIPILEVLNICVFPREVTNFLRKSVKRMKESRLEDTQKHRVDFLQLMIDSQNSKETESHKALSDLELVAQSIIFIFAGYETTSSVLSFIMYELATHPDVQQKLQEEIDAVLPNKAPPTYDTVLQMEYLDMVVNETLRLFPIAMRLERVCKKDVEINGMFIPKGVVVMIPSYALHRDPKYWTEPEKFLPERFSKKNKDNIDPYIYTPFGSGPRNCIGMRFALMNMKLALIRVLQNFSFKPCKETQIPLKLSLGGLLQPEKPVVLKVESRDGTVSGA

Vero = Vero cell cytotoxicity, cytotoxicity control for flavivirus capping enzyme inhibitors (AID 588742); assay type: functional; details: Chlorocebus sabaeus
Genome polyprotein = Genome polyprotein (dengue virus type 2, UniProt P29990); assay: Dengue-2 NS5 methyltransferase inhibitors, primary screen, biochemical, confirmation dose response (AID 588689); assay type: functional
Genome polyprotein, sequence (P29990 2492-3391 limits assumed): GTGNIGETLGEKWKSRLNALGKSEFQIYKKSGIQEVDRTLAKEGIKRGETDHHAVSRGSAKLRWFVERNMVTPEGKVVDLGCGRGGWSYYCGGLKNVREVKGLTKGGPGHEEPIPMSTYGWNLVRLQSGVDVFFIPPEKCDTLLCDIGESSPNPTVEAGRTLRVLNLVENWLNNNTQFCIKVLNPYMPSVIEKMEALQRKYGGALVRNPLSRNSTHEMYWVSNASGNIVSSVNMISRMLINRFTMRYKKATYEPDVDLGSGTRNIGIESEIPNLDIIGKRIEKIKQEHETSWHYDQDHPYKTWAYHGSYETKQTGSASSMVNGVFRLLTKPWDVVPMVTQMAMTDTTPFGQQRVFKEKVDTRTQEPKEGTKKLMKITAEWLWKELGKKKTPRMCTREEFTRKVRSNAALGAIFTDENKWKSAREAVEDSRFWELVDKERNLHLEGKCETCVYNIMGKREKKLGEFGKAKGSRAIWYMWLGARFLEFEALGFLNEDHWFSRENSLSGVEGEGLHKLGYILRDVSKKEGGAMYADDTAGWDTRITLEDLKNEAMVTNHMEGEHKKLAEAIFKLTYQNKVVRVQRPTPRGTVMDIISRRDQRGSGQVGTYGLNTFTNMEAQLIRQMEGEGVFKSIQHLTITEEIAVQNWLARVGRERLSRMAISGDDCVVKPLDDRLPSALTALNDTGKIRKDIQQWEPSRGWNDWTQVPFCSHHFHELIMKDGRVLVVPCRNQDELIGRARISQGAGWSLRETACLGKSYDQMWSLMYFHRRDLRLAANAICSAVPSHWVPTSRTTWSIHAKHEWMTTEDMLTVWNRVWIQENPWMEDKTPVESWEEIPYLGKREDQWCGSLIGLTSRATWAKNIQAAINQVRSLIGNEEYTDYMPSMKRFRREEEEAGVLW

[15] = target: T4, Corticotropin-releasing factor receptor 2/Corticotropin-releasing factor-binding protein (Homo sapiens, UniProt P24387+Q13324); assay: activators of CRF receptor 2 with binding protein – uHTS hits, confirmation (AID 602473); assay type: functional; details: read-out: EC50_Mean
T4 sequence (Q13324 whole entry): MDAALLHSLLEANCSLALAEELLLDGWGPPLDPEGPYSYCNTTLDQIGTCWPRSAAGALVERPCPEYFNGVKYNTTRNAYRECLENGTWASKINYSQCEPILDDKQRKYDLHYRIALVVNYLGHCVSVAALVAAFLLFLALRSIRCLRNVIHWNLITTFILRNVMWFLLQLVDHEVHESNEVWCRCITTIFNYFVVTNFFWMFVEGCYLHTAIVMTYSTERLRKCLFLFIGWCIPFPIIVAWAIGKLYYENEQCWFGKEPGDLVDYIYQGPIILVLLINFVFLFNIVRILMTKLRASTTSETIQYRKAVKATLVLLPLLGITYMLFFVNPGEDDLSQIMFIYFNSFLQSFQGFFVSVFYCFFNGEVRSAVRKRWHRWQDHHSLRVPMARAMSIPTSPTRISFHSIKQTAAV
T4 sequence (P24387 whole entry): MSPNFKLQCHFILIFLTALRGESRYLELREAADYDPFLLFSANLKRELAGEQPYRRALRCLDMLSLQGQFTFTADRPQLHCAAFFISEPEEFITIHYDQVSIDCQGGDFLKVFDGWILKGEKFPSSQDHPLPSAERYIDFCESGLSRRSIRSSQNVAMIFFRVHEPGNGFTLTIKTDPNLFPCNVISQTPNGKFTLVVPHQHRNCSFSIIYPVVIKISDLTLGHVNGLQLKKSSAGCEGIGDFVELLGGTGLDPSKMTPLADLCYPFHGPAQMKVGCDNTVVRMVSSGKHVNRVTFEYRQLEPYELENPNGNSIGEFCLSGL

SMILES: CCOc1ccc2nc(NC(=O)Cn3[nH]c(=O)c4ccccc4c3=O)sc2c1
- EC50 [1]: > 120 µM (not active)
- EC50 [2]: 5.14 µM (active)
- EC50 (H4): 54.3 µM (active)
- IC50 [3]: 39.7 µM (active)
- IC50 [4]: > 100 µM (inactive)
- IC50 (Prothrombin): 90.4 µM (active)

SMILES: COc1ccc2c(C)cc(SCC(=O)Nc3cc(C(N)=O)cc(C(N)=O)c3)nc2c1
- EC50 [5]: > 99 µM (inactive)
- EC50 [6]: > 99 µM (inactive)

SMILES: O=C(Nc1ncc([N+](=O)[O-])s1)c1cccs1
- EC50 [7]: > 150 µM (inactive)
- EC50 [8]: 0.069 µM (active)
- CC50 [9]: 34.3 µM (active)
- CC50 [10]: > 20 µM (active)

SMILES: CN(C)c1oc(/C=C/c2ccccc2)nc1C#N
- IC50 (Aminopeptidase N): 23.9 µM (active)

SMILES: Cc1cc(C(=O)NN=C(S)NCc2ccco2)nn1C
- IC50 (Aminopeptidase N): 57.7 µM (active)

SMILES: O=C(Nc1cccc([N+](=O)[O-])c1)Nc1ccc2c(c1)CCC2
- EC50 [11]: 3.27 µM (active)
- EC50 [12]: > 60 µM (not active)
- EC50 [5]: > 99 µM (inactive)
- EC50 [6]: > 99 µM (inactive)

SMILES: COc1ccc(-c2nc3nc(C)c(Cc4ccccc4)c(O)n3n2)cc1
- IC50 [13]: 30.6 µM (active)

SMILES: O=C(NCCN1CCOCC1)c1cc2c(=O)n3ccccc3nc2n1Cc1ccccc1
- IC50 (Aminopeptidase N): 102 µM (active)

SMILES: Cc1ccccc1NC(=O)C1c2cccc[n+]2CC(=O)N1c1c(C)cccc1C (stereo not given)
- EC50 [5]: > 99 µM (inactive)
- EC50 [6]: > 99 µM (inactive)

SMILES: COc1ccc(/C=C2\SC(N3CCCCC3)=NC2=O)cc1
- AC50 [14]: 0.308 µM (active)

SMILES: COc1ccc(OC)c(NC(=O)C(=O)NNC(=O)C23CC4CC(CC(C4)C2)C3)c1
- CC50 [9]: > 40 µM (active)
- CC50 [10]: > 20 µM (active)
- IC50 (cells): 8.62 µM (active)

SMILES: CCc1nc2oc3ccccc3c(=O)c2c(=O)n1-c1ccc(C)cc1
- IC50 [3]: 24.5 µM (active)
- IC50 [4]: > 100 µM (inactive)
- IC50 (Prothrombin): 87.5 µM (active)

SMILES: CCOC(=O)OCC1OC(C#Cc2ccc(C)cc2C)C=CC1OC(=O)OCC (stereo not given)
- AC50 (Cytochrome P450 3A4): 3.98 µM (inconclusive)

SMILES: Cc1cc(Br)c(Cl)cc1NC(=O)CN1C(=O)C2C3CC(c4ccccc4)C(C3)C2C1=O (stereo not given)
- EC50 [11]: 2.59 µM (active)
- EC50 [12]: 7.41 µM (active)
- CC50 (Vero): > 40 µM (active)

SMILES: CCNC(=S)NCC
- AC50 (Cytochrome P450 3A4): 6.31 µM (inconclusive)

SMILES: Cc1ccc(S(=O)(=O)N2[C@@H](c3ccc(Br)cc3)C(C(=O)O)=CC[C@H]2c2ccc(C(C)C)cc2)cc1
- CC50 (Vero): > 40 µM (active)
- IC50 (Genome polyprotein): 32.9 µM (active)

SMILES: COc1ccc(/C=N/Nc2ccc([N+](=O)[O-])cc2S(=O)(=O)N2CCN(C)CC2)cc1
- EC50 [5]: > 99 µM (inactive)
- EC50 [6]: 8.43 µM (active)
- EC50 [15]: 6.27 µM (active)

SMILES: COc1cc(C/C=C/c2ccccc2)c(OC)cc1O [VIOLASTYRENE]
- AC50 (Cytochrome P450 3A4): 39.8 µM (inconclusive)
